A short description of assay [1]: ROS-generating activity of the photo-irradiated compound assessed as singlet oxygen generation measuring reduction in absorbance at 410 nm at 5 uM by DPBF oxidation method. Details: scale not given: the % may be the effect or the level left.
The subject of assay [2] is CHO. The experiment in a line: Cytotoxicity against CHO cells assessed as cell death at 0.1 to 100 uM after 3 hrs followed by photo-irradiation for 30 secs measured 24 hrs post irradiation by MTT assay. In kind it is functional, cell-based. The note with it: Cricetulus griseus.
Assay [3] relates to CHO. Kind of assay: Cytotoxicity against CHO cells assessed as cell death at 0.1 to 100 uM after 3 hrs followed by sono-irradiation for 30 secs measured 24 hrs post irradiation by MTT assay. In kind it is functional, cell-based. The conditions noted are these: Cricetulus griseus.
The nature of assay [4]: ROS-generating activity of the sono-irradiated compound assessed as singlet oxygen generation measuring reduction in absorbance at 410 nm at 5 uM by DPBF oxidation method. On the set-up: scale not given: the % may be the effect or the level left.
A short description of assay [5]: ROS-generating activity of the photo/sono-irradiated compound assessed as singlet oxygen generation measuring reduction in absorbance at 410 nm at 5 uM by DPBF oxidation method. Details: scale not given: the % may be the effect or the level left.
Assay [6] relates to CHO. The experiment in a line: Cytotoxicity against CHO cells assessed as cell death at 0.1 to 100 uM after 3 hrs followed by photo/sono-irradiation for 30 secs measured 24 hrs post irradiation by MTT assay. In kind it is functional, cell-based. The note with it: Cricetulus griseus.
The subject of assay [7] is CHO. Kind of assay: Cytotoxicity against CHO cells assessed as cell death at 100 uM after 3 hrs followed by photo/sono-irradiation for 30 secs measured 24 hrs post irradiation by MTT assay relative to photo-irradiated cells. In kind it is functional, Cricetulus griseus.
Assay [8] relates to CHO. The experiment in a line: Cytotoxicity against CHO cells assessed as cell viability at 100 uM after 3 hrs by MTT assay. In kind it is functional. The conditions noted are these: Cricetulus griseus, read-out: Activity.
The test system of assay [9] is CHO. The experiment in a line: Cytotoxicity against CHO cells assessed as cell death at 100 uM after 3 hrs followed by photo/sono-irradiation for 30 secs measured 24 hrs post irradiation by MTT assay relative to sono-irradiated cells. In kind it is functional, Cricetulus griseus.
In assay [10] the test system is CHO. Kind of assay: Cytotoxicity against CHO cells after 3 hrs followed by photo/sono-irradiation for 30 secs measured 24 hrs post irradiation by MTT assay. In kind it is functional, Cricetulus griseus.
For assay [11], the system named is CHO. The experiment in a line: Cytotoxicity against CHO cells assessed as cell death at 100 uM after 3 hrs followed by sono-irradiation for 30 secs measured 24 hrs post irradiation by MTT assay. In kind it is functional, Cricetulus griseus.
For assay [12], the system named is CHO. The experiment in a line: Cytotoxicity against CHO cells after 3 hrs followed by photo-irradiation for 30 secs measured 24 hrs post irradiation by MTT assay. In kind it is functional, Cricetulus griseus.
The test system of assay [13] is CHO. The experiment in a line: Cytotoxicity against CHO cells assessed as cell death at 100 uM after 3 hrs followed by photo/sono-irradiation for 30 secs measured 24 hrs post irradiation by MTT assay. In kind it is functional, Cricetulus griseus.
Assay [14] relates to CHO. Kind of assay: Cytotoxicity against CHO cells after 3 hrs followed by sono-irradiation for 30 secs measured 24 hrs post irradiation by MTT assay. In kind it is functional, Cricetulus griseus.
The subject of assay [15] is CHO. The experiment in a line: Cytotoxicity against CHO cells assessed as cell death at 100 uM after 3 hrs followed by photo-irradiation for 30 secs measured 24 hrs post irradiation by MTT assay. In kind it is functional, Cricetulus griseus.
Assay [16] deals with CHO. Kind of assay: Cytotoxicity against CHO cells after 3 hrs by MTT assay. In kind it is functional, Cricetulus griseus.

Structures are written as SMILES. The source made the active and inactive calls. No cut-off for these calls is given here.

As to `CN(C)c1ccc2nc3ccc(=[N+](C)C)cc-3sc2c1`, the Activity in [1] stood at 38.8%; in assay [4] it was 40.1%; in assay [5], 71.8%. Moreover, the outcome in [2], in assay [3] and in assay [6] was Active.
For `CN(C)c1ccc2nc3ccc(N(C)C)cc3[s+]c2c1.[Cl-]` [METHYLENE BLUE ANHYDROUS], the “fold change (FC)” value in assay [7] came to 2. Moreover, the viability at 100 µM in [8] amounted to 80%. The Activity in assay [9] worked out at 43%.
Turning to `O=C([O-])c1c(Cl)c(Cl)c(Cl)c(Cl)c1-c1c2cc(I)c(=O)c(I)c-2oc2c(I)c([O-])c(I)cc12.[Na+].[Na+]` [ROSE BENGAL SODIUM], the Activity in assay [1] amounted to 44.7%; in assay [11], 95%; in assay [13] it was 95%; in [15], 95%; in assay [4], 58.4%; in assay [5] it was 74.9%. Also, the LD50 in [10] was 2 µmol; in [12] it was 3.3 µmol; in assay [14], 38.5 µmol; in [16], 138.4 µmol. Further, the viability at 100 µM in [8] came to 65%.
